# Measured values from patent US5728704A, “Substituted pyridmidines for control of diabetic complications” (Pfizer Inc., priority 1995, dated 1998).
# Legend:
# [1] = test system: erythrocyte (red blood cell) fructose and sorbitol; experiment: erythrocyte fructose and sorbitol in streptozocin-diabetic rats after a single oral dose; format: in vivo, rat (male Sprague-Dawley); conditions: single oral dose 10, 50, 100 or 300 mg/kg
# Method: (§1) Male Sprague-Dawley rats (350-400 g) were used for these experiments. Diabetes was induced in some of the rats by a tail vein injection of streptozocin, 85 mg/kg. Twenty-four hours later, 4 groups of diabetic rats were given a single dose of 4-[4-(N,N-dimethylsulfamoyl)-piperazino]-2-methylpyrimidine (10, 50, 100, or 300 mg/kg) by oral gavage. Animals were sacrificed 4-6 hours after dosing and blood and sciatic nerves were harvested. Tissues and cells were extracted with 6% perchloric acid.
# (§2) Sorbitol in erythrocytes and nerves was measured by a modification of the method of R. S. Clements et al. (Science, 166: 1007-8, 1969). […] After incubation for 30 minutes at room temperature, sample fluorescence was determined on a fluorescence spectrophotometer with excitation at 366 nm and emission at 452 nm. After subtracting appropriate blanks, the amount of sorbitol in each sample was determined from a linear regression of sorbitol standards processed in the same manner as the tissue extracts.
# (§3) Fructose was determined by a modification of the method described by M. Ameyama, Methods in Enzymology, 89: 20-25 (1982). […] After incubation for 60 minnutes at room temperature, sample fluorescence was determined on a fluorescence spectrophotometer with excitation at 560 nm and emission at 580 nm. […]
# sorbitol dehydrogenase [2] = target: T1, sorbitol dehydrogenase (Ovis aries, UniProt P07846); experiment: in vitro inhibition of sorbitol dehydrogenase by sera from dosed rats; format: biochemical; conditions: sera from rats dosed with the compound (FIG. 5)
# T1 sequence (P07846 1-354): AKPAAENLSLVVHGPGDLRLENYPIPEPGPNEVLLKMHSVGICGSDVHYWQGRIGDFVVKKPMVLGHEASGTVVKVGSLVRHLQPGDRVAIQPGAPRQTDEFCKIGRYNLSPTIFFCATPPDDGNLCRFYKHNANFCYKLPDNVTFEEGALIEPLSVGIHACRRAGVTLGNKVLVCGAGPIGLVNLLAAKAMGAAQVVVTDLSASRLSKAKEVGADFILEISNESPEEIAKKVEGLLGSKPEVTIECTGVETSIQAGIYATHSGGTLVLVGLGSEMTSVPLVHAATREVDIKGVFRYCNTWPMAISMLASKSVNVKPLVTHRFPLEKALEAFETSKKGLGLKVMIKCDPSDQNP
# Method: as §1
# (§4) SDH activity was measured by a modification of the method described by U. Gerlach, Methodology of Enzymatic Analyses, edited by H. U. Bergmeyer, 3, 112-117 (1983). Aliquots of sera or urine were added to the assay system, which had final concentrations of reagents of 0.1M potassium phosphate buffer, pH 7.4, 5 mM NAD, 20 mM sorbitol, and 0.7 units/ml of sorbitol dehydrogenase. After incubation for 10 minutes at room temperature, the average change in sample absorbance was determined at 340 nm. SDH activity was presented as milliOD340 units/minute (OD340 =optical density at 340 nm).
# sorbitol dehydrogenase [3] = target: T1, sorbitol dehydrogenase; experiment: in vitro inhibition of sorbitol dehydrogenase by urine from dosed rats; format: biochemical
# Method: as §4
# [4] = test system: sciatic nerve fructose and sorbitol; experiment: sciatic nerve fructose and sorbitol in streptozocin-diabetic rats after a single oral dose; format: in vivo, rat (male Sprague-Dawley); conditions: single oral dose 10, 50, 100 or 300 mg/kg, 4-6 hours after dosing (FIG. 4)
# Method: as §1, §2, §3
# sorbitol dehydrogenase [5] = target: T1, sorbitol dehydrogenase; experiment: inhibition of sorbitol dehydrogenase in vitro (direct test); format: biochemical; conditions: tested directly on sorbitol dehydrogenase in vitro
# Method: as §4
# The IC50 values indicate the concentration at which fifty percent inhibition of sorbitol dehydrogenase in vitro was observed.
smiles,measurement,setting,value
"Cc1nccc(N2CCN(S(=O)(=O)N(C)C)CC2)n1 [Compound 1, 4-[4-(N,N-dimethylsulfamoyl)-piperazino]-2-methylpyrimidine]",erythrocyte (RBC) fructose,[1]; 4-6 hours after dosing (FIG. 1),dose dependently lowered
same,erythrocyte sorbitol,[1]; 4-6 hours after dosing (FIG. 2),dose dependently raised
same,inhibition of SDH in vitro by sera from dosed rats,sorbitol dehydrogenase [2],potently inhibited SDH in vitro in a dose dependent manner
same,inhibition of SDH with as little as 0.5 μl of urine,sorbitol dehydrogenase [3]; 0.5 μl of urine of dosed animals (FIG. 6),strong inhibition
same,SDH inhibitory activity of urine compared with sera,sorbitol dehydrogenase [3]; urine (FIG. 6) compared with sera (FIG. 5),even more potent source of SDH inhibitory activity
same,inhibition of SDH in vitro by urine of dosed animals,sorbitol dehydrogenase [3]; urine of animals dosed with the compound (FIG. 6),potently inhibited SDH in vitro in a dose dependent manner
same,sciatic nerve sorbitol,[4],increase in sorbitol
same,IC50,sorbitol dehydrogenase [5],500 µM
